Converted amounts (≈) assume the structure as drawn. The source made the active and inactive calls. The calls are words filed in the database; no cut-off is given here.
Experiments:
[1] = test system: Cryptococcus neoformans; test: Antifungal activity against Cryptococcus neoformans H99 after 48 hrs by growth curve assay; assay type: functional; conditions: for MIC80: var grubii H99 
[2] = Half life in ICR mouse liver microsomes at 1 uM measured up to 45 mins in presence of NADPH by LC-MS/MS analysis; assay type: ADME, Microsome
[3] = Solubility of the compound; assay type: physicochemical
[4] = test system: Nakaseomyces glabratus; test: Antifungal activity against Candida glabrata 8535 after 48 hrs by spectrophotometery; assay type: functional; conditions: Nakaseomyces glabratus, 8535, 48 h
[5] = test system: Cryptococcus neoformans; test: Antifungal activity against Cryptococcus neoformans H99 after 72 hrs by growth curve assay; assay type: functional; conditions: var grubii H99 
[6] = test system: Candida albicans; test: Antifungal activity against Candida albicans 7781 after 48 hrs by spectrophotometery; assay type: functional; conditions: Candida albicans, 7781, 48 h
[7] = test system: Candida albicans; test: Antifungal activity against Candida albicans 0304103 after 48 hrs by spectrophotometery; assay type: functional; conditions: Candida albicans, 0304103, 48 h
[8] = test system: Candida parapsilosis; test: Antifungal activity against Candida parapsilosis 5008 after 48 hrs by spectrophotometery; assay type: functional; conditions: Lodderomyces parapsilosis, 5008, 48 h
[9] = test system: Aspergillus fumigatus; test: Antifungal activity against Aspergillus fumigatus 7544 after 48 hrs by spectrophotometery; assay type: functional; conditions: Aspergillus fumigatus, 7544, 48 h
[10] = test system: Trichophyton rubrum; test: Antifungal activity against Trichophyton rubrum TIA after 48 hrs by spectrophotometery; assay type: functional
[11] = test system: Nannizzia gypsea; test: Antifungal activity against Microsporum gypseum MZC after 48 hrs by spectrophotometery; assay type: functional
[12] = test system: Cryptococcus neoformans; test: Antifungal activity against Cryptococcus neoformans ATCC 34877 after 72 hrs by spectrophotometery; assay type: functional; conditions: ATCC 34877, 72 h
[13] = Protein binding in mouse plasma; assay type: ADME, cell-free
[14] = test system: HUVEC; test: Cytotoxicity against human HUVEC; assay type: cell-based
[15] = test system: Cryptococcus neoformans; test: Antibiofilm activity against Cryptococcus neoformans H99 at 16 ug/ml after 90 mins by XTT assay; assay type: functional, organism-based; conditions: var grubii H99
[16] = test system: Cryptococcus neoformans; test: Inhibition of melanin production in Cryptococcus neoformans H99 at 2.5 ug/ml; assay type: functional, organism-based; conditions: var grubii H99
[17] = test system: Cryptococcus neoformans; test: Inhibition of urease production in Cryptococcus neoformans H99 at 10 ug/ml; assay type: functional, organism-based; conditions: var grubii H99
[18] = Clearance in ICR mouse liver microsomes at 1 uM measured up to 45 mins in presence of NADPH by LC-MS/MS analysis; assay type: ADME, Microsome; conditions: 0.75 h
[19] = test system: Cryptococcus neoformans; test: Antifungal activity against Cryptococcus neoformans H99 assessed as inhibition of microbial growth at 8 ug/ml after 12 to 48 hrs by growth curve assay; assay type: functional; conditions: var grubii H99, read-out: GI
[20] = test system: Cryptococcus gattii; test: Antifungal activity against Cryptococcus gattii ATCC 14116 after 72 hrs by spectrophotometery; conditions: ATCC 14116, 72 h

Row | Structure (SMILES) | MIC80 [1] [µg/mL] | other results
1 | c1ccc2c(c1)c1c(n2CCCNC2CCCC2)CNCC1 | 64 (≈ 215 µM) | –
2 | Cc1cccc2c3c(n(CCCOc4ccc(Cl)cc4)c12)CNCC3.O=C(O)C(F)(F)F | 2 | –
3 | c1ccc2c(c1)c1c(n2CCCN2CCCC2)CNCC1 | 64 (≈ 226 µM) | –
4 | Clc1cccc(OCCCn2c3c(c4ccccc42)CCNC3)c1.O=C(O)C(F)(F)F | 4 | –
5 | COc1cccc(NCCCn2c3c(c4ccccc42)CCNC3)c1.O=C(O)C(F)(F)F | 32 | –
6 | CN(C)CCn1c2c(c3ccccc31)CCNC2 | 64 (≈ 263 µM) | –
7 | CCN(CC)CCCn1c2c(c3ccccc31)CCNC2 | 64 (≈ 224 µM) | –
8 | C1=CCN(CCCn2c3c(c4ccccc42)CCNC3)C1 | 64 (≈ 227 µM) | –
9 | COc1ccc(N2CCN(CCCn3c4c(c5ccccc53)CCNC4)CC2)cc1 | 64 (≈ 158 µM) | –
10 | COc1ccccc1OCCCn1c2c(c3ccccc31)CCNC2.O=C(O)C(F)(F)F | 32 | –
11 | Clc1ccccc1OCCCn1c2c(c3ccccc31)CCNC2.O=C(O)C(F)(F)F | 4 | –
12 | COc1ccccc1N1CCN(CCCn2c3c(c4ccccc42)CCNC3)CC1 | 64 (≈ 158 µM) | –
13 | COc1ccc2c3c(n(CCCOc4ccc(Cl)cc4)c2c1)CNCC3.O=C(O)C(F)(F)F | 2 | –
14 | Fc1ccccc1NCCCn1c2c(c3ccccc31)CCNC2.O=C(O)C(F)(F)F | 16 | –
15 | Brc1ccccc1NCCCn1c2c(c3ccccc31)CCNC2.O=C(O)C(F)(F)F | 8 | –
16 | Clc1ccc(OCCCn2c3c(c4ccccc42)CCNC3)cc1.O=C(O)C(F)(F)F | 4 | –
17 | COc1ccc(NCCCn2c3c(c4ccccc42)CCNC3)cc1.O=C(O)C(F)(F)F | 32 | –
18 | CCOc1ccc(NCCCn2c3c(c4ccccc42)CCNC3)cc1.O=C(O)C(F)(F)F | 32 | –
19 | c1ccc2c(c1)c1c(n2CCN2CCOCC2)CNCC1 | 64 (≈ 224 µM) | –
20 | Cc1ccc(OCCCn2c3c(c4ccccc42)CCNC3)cc1.O=C(O)C(F)(F)F | 8 | –

Row | Structure (SMILES) | MIC80 [1] [µg/mL] | other results
21 | Clc1ccc(OCCCn2c3c(c4ccc(Br)cc42)CCNC3)cc1.O=C(O)C(F)(F)F | 2 | –
22 | Fc1ccccc1OCCCn1c2c(c3ccccc31)CCNC2.O=C(O)C(F)(F)F | 16 | –
23 | Fc1ccc(OCCCn2c3c(c4ccccc42)CCNC3)cc1.O=C(O)C(F)(F)F | 8 | –
24 | Clc1ccc(OCCCn2c3c(c4cccc(Cl)c42)CCNC3)cc1.O=C(O)C(F)(F)F | 2 | –
25 | Brc1ccc(NCCCn2c3c(c4ccccc42)CCNC3)cc1.O=C(O)C(F)(F)F | 8 | –
26 | Fc1cccc(OCCCn2c3c(c4ccccc42)CCNC3)c1.O=C(O)C(F)(F)F | 8 | –
27 | Brc1ccc(OCCCn2c3c(c4ccccc42)CCNC3)cc1.O=C(O)C(F)(F)F | 4 | –
28 | O=C1c2ccccc2C(=O)N1CCCn1c2c(c3ccccc31)CCNC2 | 64 (≈ 178 µM) | –
29 | Cc1ccc2c3c(n(CCCOc4ccc(Cl)cc4)c2c1)CNCC3.O=C(O)C(F)(F)F | 2 | –
30 | c1ccc2c(c1)c1c(n2CCCN2CCCCC2)CNCC1 | 64 (≈ 215 µM) | –
31 | c1ccc(C2CCN(CCCn3c4c(c5ccccc53)CCNC4)CC2)cc1 | 32 (≈ 85.7 µM) | –
32 | Brc1cccc(OCCCn2c3c(c4ccccc42)CCNC3)c1.O=C(O)C(F)(F)F | 4 | –
33 | Fc1ccc(NCCCn2c3c(c4ccccc42)CCNC3)cc1.O=C(O)C(F)(F)F | 16 | –
34 | O=C(O)C(F)(F)F.O=[N+]([O-])c1ccc(OCCCn2c3c(c4ccccc42)CCNC3)cc1 | 16 | –
35 | Clc1ccc(OCCCn2c3c(c4c(Br)cccc42)CCNC3)cc1.O=C(O)C(F)(F)F | 8 | –
36 | Fc1ccc2c3c(n(CCCOc4ccc(Cl)cc4)c2c1)CNCC3.O=C(O)C(F)(F)F | 2 | –
37 | Clc1ccc(OCCCn2c3c(c4cccc(Br)c42)CCNC3)cc1.O=C(O)C(F)(F)F | 4 | –
38 | COc1ccc2c(c1)c1c(n2CCCOc2ccc(Cl)cc2)CNCC1.O=C(O)C(F)(F)F | 4 | –
39 | Clc1ccccc1NCCCn1c2c(c3ccccc31)CCNC2.O=C(O)C(F)(F)F | 8 | –
40 | CCOc1ccccc1NCCCn1c2c(c3ccccc31)CCNC2.O=C(O)C(F)(F)F | 32 | –

Row | Structure (SMILES) | MIC80 [1] [µg/mL] | other results
41 | COc1ccc(OCCCn2c3c(c4ccccc42)CCNC3)cc1.O=C(O)C(F)(F)F | 16 | –
42 | Cc1ncc2n1-c1ccc(Cl)cc1C(c1ccccc1F)=NC2 [MIDAZOLAM] | – | half-life at 1 µM [2]: 2 min
43 | Brc1cccc(NCCCn2c3c(c4ccccc42)CCNC3)c1.O=C(O)C(F)(F)F | 8 | –
44 | Fc1cccc(NCCCn2c3c(c4ccccc42)CCNC3)c1.O=C(O)C(F)(F)F | 16 | –
45 | Clc1cccc(NCCCn2c3c(c4ccccc42)CCNC3)c1.O=C(O)C(F)(F)F | 8 | –
46 | Clc1ccc(OCCCn2c3c(c4cc(Br)ccc42)CCNC3)cc1.O=C(O)C(F)(F)F | 0.5 | solubility [3]: 19.3 µg/mL
47 | CCOc1cccc(NCCCn2c3c(c4ccccc42)CCNC3)c1.O=C(O)C(F)(F)F | 64 | –
48 | CC1CCCN(CCCn2c3c(c4ccccc42)CCNC3)C1 (stereo unspecified) | 32 (≈ 103 µM) | –
49 | Cc1ccc2c(c1)c1c(n2CCCOc2ccc(Cl)cc2)CNCC1.O=C(O)C(F)(F)F | 1 | Activity ([1]; var grubii H99): Dose-dependent effect; MIC80 [4]: 2 µg/mL; MIC80 [5]: 2 µg/mL; MIC80 [6]: 4 µg/mL; MIC80 [7]: 4 µg/mL; MIC80 [8]: 8 µg/mL; MIC80 [9]: 8 µg/mL; MIC80 [10]: 4 µg/mL; MIC80 [11]: 8 µg/mL; MIC80 [12]: 2 µg/mL; PPB [13]: Active; Activity [14]: Non-Toxic; Activity [15]: Active; inhibition [16]: Active; inhibition [17]: inactive; half-life at 1 µM [2]: 11 min; scaled CLint [18]: 477 mL/min/kg; solubility [3]: 57.5 µg/mL; inhibition of growth at 8 µg/mL [19]: 100%; MIC80 [20]: 2 µg/mL
50 | COc1cccc(OCCCn2c3c(c4ccccc42)CCNC3)c1.O=C(O)C(F)(F)F | 16 | –
51 | Clc1ccc(NCCCn2c3c(c4ccccc42)CCNC3)cc1.O=C(O)C(F)(F)F | 8 | –
52 | Clc1ccc(OCCCn2c3c(c4c(Cl)cccc42)CCNC3)cc1.O=C(O)C(F)(F)F | 4 | –
53 | Fc1cccc2c1c1c(n2CCCOc2ccc(Cl)cc2)CNCC1.O=C(O)C(F)(F)F | 4 | –
54 | COc1ccccc1NCCCn1c2c(c3ccccc31)CCNC2.O=C(O)C(F)(F)F | 32 | –
55 | c1ccc(N2CCN(CCCn3c4c(c5ccccc53)CCNC4)CC2)cc1 | 32 (≈ 85.4 µM) | –
56 | Brc1ccccc1OCCCn1c2c(c3ccccc31)CCNC2.O=C(O)C(F)(F)F | 8 | –
57 | Clc1ccc(OCCCn2c3c(c4ccc(Cl)cc42)CCNC3)cc1.O=C(O)C(F)(F)F | 2 | –
58 | c1ccc(CN2CCN(CCCn3c4c(c5ccccc53)CCNC4)CC2)cc1 | 32 (≈ 82.4 µM) | –
59 | COc1cccc2c3c(n(CCCOc4ccc(Cl)cc4)c12)CNCC3.O=C(O)C(F)(F)F | 4 | –
60 | Cc1ccc(NCCCn2c3c(c4ccccc42)CCNC3)cc1.O=C(O)C(F)(F)F | 16 | –
